Earlier results on one molecule are cited in patent US7109169B2, “Method for treating heart failure by inhibiting the sarcolemmal sodium/calcium exchange” (priority 2002, dated 2006).

Structures are written as SMILES.

Regarding `N=C(N)SCCc1ccc(OCc2ccc([N+](=O)[O-])cc2)cc1` [KB-R7943], in the data set with cardiac contractility, the “effect on cardiac contractility” value is on record as “no effect”. In the data set on Na/Ca exchanger, the “mode of the Na/Ca exchanger inhibited” value is “predominantly the Ca-entry mode”. For the same molecule, in the data set on Na/Ca exchanger (inhibits a variety of ion channels in the cardiac membrane), the specificity of action result is given as “completely non-specific”.
